Reference: US7943667B2, “Potentiating the effect of compound comprising nitric oxide” (Duke University, priority 2007, dated 2011)
Where two headings read alike, the source gives them in different places.

How the values were obtained:
lung cells = assay: S-nitrosothiol uptake in lung cells (LAT / PEPT2 transport); type: cell-based, rat
Description: It was shown in a kidney cell line that transportation of extracellular S-nitrosothiols in the form of S-nitroso-L-cysteine through the L-type amnio acid transporter (LAT1) is necessary to achieve maximum intracellular S-nitrosothiol accumulation. It was also shown that eliminating the L-type amino acid transporter or blockade of the transporter severely limited the ability of extracellular S-nitroso-L-cysteine to gain entry into the kidney cell line. […] The results for kidney cell line were then obtained for umbilical endothelial cells. This reinforced our conception. We then performed exposures of rat pulmonary alveolar epithelial cells to a variety of S-nitrosothiol and nitric oxide donors and tested whether or not S-nitrosothiol and nitric oxide uptake required transnitrosylation of L-cysteine and uptake through L-type amino acid transport. In particular we conducted experiments using rat alveolar epithelial cells. […] We also tested the dipeptide transporter, PEPT2. […] When we added L-cysteine to the mixture, the high levels of S-nitrosothiol uptake in lung cells were restored, and this restoration was blocked when we blocked function of L-type amino acid transporter by competition or inhibition.
We conducted additional studies to determine if an alternate transporter, namely PEPT2, could account for some of the S-nitrosothiol uptake in lung cells. […] This confirmed the importance of L-cysteine as the carrier which is necessary to achieve high levels of S-nitrosothiols in lung cells. We confirmed these finding in freshly isolated lung cells as well.

[1] = Transwell air-liquid interface exposure to NO or ENO gas, intracellular NO signal (DAF-FM); type: cell-based; settings: NO or ENO gas 10 ppm for 4 hours; for NO signal produced by ENO or NO gas: buffer with 0.2 mM glutathione
Experimental: Cells were plated onto rat-tail collagen coated plastic inserts in a transwell system. When cells were firmly adherent and intact in appearance by microscopy, usually 24 h after plating, cell inserts were incubated in DAF-FM diacetate for one hour, then rinsed in Hepes-buffered Hank's balanced salt solution without amino acids. Buffer was removed from the upper chamber of the transwell and replaced with phosphate-buffered saline containing 0.2 mM glutathione in order to mimic the glutathione levels found in human alveolar lining fluid. […] The volume added was a few microliters sufficient to produce a layer of buffer ˜2 micron in thickness, in an effort to model the alveolar lining fluid thickness in the mammalian lung. Cell inserts were incubated at air liquid interface for 30 minutes, then exposed to NO or ENO gas 10 ppm for 4 hours. Inserts were then placed into a fluorescent microplate reader to detect the intracellular NO signal.

[2] = tested on: Rat L2 (alveolar) cells, alveolar T1/T2 cells, alveolar macrophages; assay: NO gas at air-liquid interface, DAF-FM NO signal in L2, alveolar T1/T2 cells and alveolar macrophages; type: cell-based; settings: NO gas 10 ppm x 4 h; for NO signal in all cell types: D- or L-Cys 50 μM, 4-8 wells/group; for L-Cys increase of NO signal (effect of competitors): competitors 10 mM x 1 h
Experimental: Rat L2 (alveolar) cells were used at passage 30. 1° alveolar T1/T2 cells were isolated from adult rat lungs with antibody-coated magnetic beads, and identified by immunocytochemistry (T1: T1^α, aquaporin-5; T2: pro-SP-C). Alveolar macrophages were obtained by lavage. Cells were plated onto collagen-coated transwells, grown submerged×2d, then incubated with DAF-FM to detect NO. Apical medium was replaced by buffer+glutathione 0.2 mM,±D-or L-Cys 50 μM±LAT competitors L-Leu or BCH, 10 mM×1 h then exposed to air or NO gas 10 ppm×4 h. Fluorescence was read in 4-8 wells/condition. LAT-1 expression was measured/RT-PCR in air or 95% O2-exposed newborn rat lung (day 2, 3, 4, 8).

[3] = Newborn piglet saline-lavage lung injury with pulmonary hypertension, pulmonary artery pressure; type: in vivo; settings: lungs lavaged with saline, inhaled NO 10 ppm, 56 Torr before treatment
Experimental: Newborn piglet was anesthetized and a thoracotomy was performed after placing arterial and venous monitoring catheters. A catheter was placed in the pulmonary artery and flow sensors around the pulmonary artery were placed.

Rat alveolar (L2) cells [4] = assay: Intracellular NO signal (DAF-FM fluorescence) in L2 cells incubated with ENO; type: cell-based; settings: ENO 10 mM, L-Leu 10 mM; for ENO induced intracellular NO signal (DAF): L-Cys 0.5 mM, by 24 minutes, N=5/group, p<0.05
Experimental: (§1) Rat alveolar (L2) cells were located with DAF-FM (converted intracellularly to DAF; NO^++DAF→fluorescense), then incubated with ENO 10 mM+L-Cys 0.5 mM, L-Leu 10 mM (competitor for L-Cys entry via LAT1), or both L-Cys+L-Leu. DAF signal was measured at 5, 10, and 24 min. In parallel studies, S—NO was measured in L2 cell lysates after co-incubation with ENO 0.2 mM±L-Cys 0.5 mM±L-Leu 10 mM by ozone chemiluminescense (normalized to protein). LAT1 protein was detected by western and immunocytochemistry in 8d air or 95% O2—exposed rat lung.

Rat alveolar (L2) cells [5] = assay: S-NO in L2 cell lysates by ozone chemiluminescence; type: cell-based; settings: for ENO induced SNO accumulation: ENO 0.2 mM ± L-Cys 0.5 mM ± L-Leu 10 mM, N=2/group
Experimental: as §1

[6] = tested on: rat alveolar pulmonary epithelial cells (L2 and Type II); assay: SNO/NO accumulation with NO donors in alveolar epithelial cells; type: cell-based; settings: L-Cys added to NO donors; inhibited by co-incubation with LAT competitors
Experimental: We carried out experiments showing that addition of L-Cys to NO donors increased SNO/NO accumulation that was inhibited by co-incubation with LAT competitors in rat alveolar pulmonary epithelial cells (L2 and Type II). These are described in Granilla, O. M., AM. J. Physiol Lung Cell Mol. Physiol 295: L38-L43 (first published Apr. 25, 2008).

[7] = Working Example I: persistent pulmonary hypertension of the newborn; type: in vivo, human; settings: L-cysteine 36 micrograms/kg by nebulizer, then inhaled ethyl nitrite or nitric oxide 1-50 ppm; from 88%
Experimental: A newborn is delivered at 41 weeks gestational age through thick meconium following a labor requiring augmentation with oxytocin. They are immediately noted at birth to experience respiratory distress and cyanosis. […] Their respiratory distress worsens requiring mechanical ventilation. […] The patient is treated with 36 micrograms/kg of L-cysteine by nebulizer attached to the inspiratory limb of the ventilator circuit, followed by initiation of inhaled ethyl nitrite or inhaled nitric oxide at 1-50 ppm. The patient SpO2 rises immediately from 88% to 100%, and systolic blood pressure improves. This example represents treatment of persistent pulmonary hypertension of the newborn.

[8] = Working Example II: prevention of bronchopulmonary dysplasia in a premature newborn; type: in vivo, human; settings: L-cysteine 36 micrograms/kg daily with continuous ethyl nitrite 1-10 ppm for 14 days
Description: The patient is born at 25 weeks estimated gestational age following preterm prolonged spontaneous rupture of amniotic membranes. The patient requires immediate endotracheal intubation at birth as well as mechanical ventilation. The patient receives the usual neonatal intensive care including exogenous surfactant administration, indomethacin prophylaxis for prevention of intraventricular hemorrhage, and intravenous antibiotics. Because the patient is at high risk to develop bronchopulmonary dysplasia, the patient is treated each day with a single dose of 36 micrograms/kg of L-cysteine and continuous ethyl nitrite at 1-10 ppm for a total of 14 days. (This is done via […] unless the patient should be extubated, in which case the inhaled ethyl nitrite is delivered via nasal cannula and the L-cysteine is administered once a day via nebulizer) Within five days, the patient is weaned from mechanical ventilation and extubated to nasal continuous positive airway pressure, continuing to receive inhaled […] 1-10 ppm, and daily L-cysteine at 36 micrograms/kg. […], the continuous positive airway pressure is discontinued. […] the patient is discharged home, without any diagnosed complications of extreme prematurity. This example represents prevention of development of bronchopulmonary dysphasia in a premature newborn infant.

For `N[C@@H](CS)C(=O)NCC(=O)O` [L-cysteinyl-glycine], the “uptake in lung cells via dipeptide transporter PEPT2” value (lung cells) was “taken up”.
With `N[C@H](CS)C(=O)O` [D-cysteine] the “NO signal produced by ENO or NO gas” value [1] was “no effect” and the “NO signal in all cell types” value [2] was “not”.
For `NC1(C(=O)O)CC2CCC1C2` (stereo not drawn) [BCH, 2-aminobicyclo-(2,2,1)-heptane-2-carboxylic acid], the “L-cysteine augmentation of NO signal (effect of LAT competitors)” value ([1]; with L-cysteine) was “completely abolished” and the “L-Cys increase of NO signal (effect of competitors)” value [2] was “blocked”.
With `[N]=O` [Inhaled nitric oxide, nitric oxide] the “peak pulmonary pressure / pulmonary artery pressure” value [3] was 45 Torr.
For `CC(C)C[C@H](N)C(=O)O` [L-leucine], the “ENO induced intracellular NO signal (DAF)” value (Rat alveolar (L2) cells [4]) was “significantly less”, the “ENO induced SNO accumulation” value (Rat alveolar (L2) cells [5]) was “did not augment” and the “L-Cys increase of NO signal (effect of competitors)” value [2] was “blocked”.
With `N[C@@H](CSN=O)C(=O)NCC(=O)O` [S-nitroso-L-cysteinyl-glycine] the “S-nitrosothiol signal / accumulation in lung cells” value (lung cells) was “could not achieve high levels” and the “S-nitrosothiol signal / accumulation in lung cells” value (lung cells; listed as S—NO-Cys-Gly) was “did not significantly increase”.
With `CCON=O` [ENO, ethyl nitrite] the “intracellular NO^+ (DAF)” value (Rat alveolar (L2) cells [4]; 5, 10 and 24 min) was “increased” and the “intracellular SNO” value (Rat alveolar (L2) cells [5]; ENO 0.2 mM) was “increased”.
With `N[C@@H](CS)C(=O)O` [L-cysteine] the “ENO induced intracellular NO signal (DAF)” value (Rat alveolar (L2) cells [4]) was “augmented”, the “ENO induced SNO accumulation” value (Rat alveolar (L2) cells [5]) was “augmented” and the “NO signal produced by ENO or NO gas” value [1] was “augmentation”. The “NO signal in all cell types” value [2] was “increased”, the “S-nitrosothiol signal / accumulation in lung cells” value (lung cells) was “restored” and the SNO/NO accumulation [6] was “increased”. The SpO2 [7] was 100% and the “bronchopulmonary dysplasia at 36 weeks post conceptual age” value [8] was “no evidence of bronchopulmonary dysplasia”.
